How the values were obtained:
Human NHE3 = biological target: T1, Human NHE3 (Homo sapiens, UniProt P48764); assay: Cell-based NHE3 activity under prompt conditions (OK cells, BCECF pH recovery), human NHE3; details: prompt conditions
T1 construct: expressed in transfected cells; host or cells: Opossum kidney (OK) cells (ATCC), electroporation
T1 sequence (P48764 26-834): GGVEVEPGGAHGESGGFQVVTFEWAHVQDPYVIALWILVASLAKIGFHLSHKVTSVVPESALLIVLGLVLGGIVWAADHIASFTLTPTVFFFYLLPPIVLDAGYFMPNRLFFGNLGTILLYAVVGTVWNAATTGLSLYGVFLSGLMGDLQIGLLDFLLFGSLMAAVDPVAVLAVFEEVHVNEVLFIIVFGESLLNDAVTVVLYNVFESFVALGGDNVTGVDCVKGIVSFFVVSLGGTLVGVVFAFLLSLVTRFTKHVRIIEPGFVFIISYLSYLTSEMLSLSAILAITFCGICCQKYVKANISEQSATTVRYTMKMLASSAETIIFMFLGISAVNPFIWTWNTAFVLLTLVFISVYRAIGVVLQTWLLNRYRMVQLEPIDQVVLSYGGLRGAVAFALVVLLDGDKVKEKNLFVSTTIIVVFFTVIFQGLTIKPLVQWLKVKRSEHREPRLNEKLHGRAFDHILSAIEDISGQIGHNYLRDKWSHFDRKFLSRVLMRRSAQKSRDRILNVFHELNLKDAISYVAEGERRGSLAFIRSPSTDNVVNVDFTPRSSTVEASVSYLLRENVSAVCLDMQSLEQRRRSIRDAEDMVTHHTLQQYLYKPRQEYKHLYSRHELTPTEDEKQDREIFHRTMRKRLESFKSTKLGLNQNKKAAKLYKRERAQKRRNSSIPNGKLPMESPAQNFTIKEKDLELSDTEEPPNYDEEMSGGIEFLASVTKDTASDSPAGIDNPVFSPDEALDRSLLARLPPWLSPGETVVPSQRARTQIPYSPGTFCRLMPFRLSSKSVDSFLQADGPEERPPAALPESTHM
How it was run: (§1)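 Read-out: initial rate of BCECF-reported intracellular pH recovery via Na+/H+ antiport, fitted to pIC50. Opossum kidney cells transfected with rat or human NHE3; NH4Cl prepulse with 5 μM BCECF-AM, 30 min RT; Na+-free choline buffer 10 min.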

Rat NHE3 = biological target: T2, Rat NHE3 (Rattus norvegicus, UniProt P26433); assay: Cell-based NHE3 activity under prompt conditions (OK cells, BCECF pH recovery), rat NHE3; details: prompt conditions
T2 construct: expressed in transfected cells; host or cells: Opossum kidney (OK) cells (ATCC), electroporation
T2 sequence (P26433 29-831): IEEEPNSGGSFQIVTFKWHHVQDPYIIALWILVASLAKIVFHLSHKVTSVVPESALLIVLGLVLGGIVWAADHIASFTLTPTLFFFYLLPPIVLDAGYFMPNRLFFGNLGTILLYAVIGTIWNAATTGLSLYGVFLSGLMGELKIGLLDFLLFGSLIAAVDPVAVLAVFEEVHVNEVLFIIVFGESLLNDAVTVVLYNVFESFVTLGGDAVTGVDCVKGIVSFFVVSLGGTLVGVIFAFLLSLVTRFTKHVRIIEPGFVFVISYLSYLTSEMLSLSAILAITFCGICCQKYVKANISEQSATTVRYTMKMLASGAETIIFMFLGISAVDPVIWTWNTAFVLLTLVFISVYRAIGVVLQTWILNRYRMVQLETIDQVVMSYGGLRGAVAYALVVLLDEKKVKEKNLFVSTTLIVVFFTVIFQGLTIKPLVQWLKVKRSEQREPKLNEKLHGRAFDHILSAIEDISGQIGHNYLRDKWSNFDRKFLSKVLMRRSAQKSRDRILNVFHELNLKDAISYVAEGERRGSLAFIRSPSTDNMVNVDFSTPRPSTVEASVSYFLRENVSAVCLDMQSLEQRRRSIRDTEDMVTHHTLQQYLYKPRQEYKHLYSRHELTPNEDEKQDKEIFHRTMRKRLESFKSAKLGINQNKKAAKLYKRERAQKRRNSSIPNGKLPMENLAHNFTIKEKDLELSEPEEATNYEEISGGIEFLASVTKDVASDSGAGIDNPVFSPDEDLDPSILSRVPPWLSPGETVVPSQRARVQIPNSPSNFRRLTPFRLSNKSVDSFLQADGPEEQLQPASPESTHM
How it was run: as §1

[1] = system: phosphorus and calcium levels in the urine of rats; assay: Urinary excretion of phosphate and calcium in rats (16 h overnight urine); assay type: in vivo, rat; details: rats, oral gavage, 16 h post-dose
[2] = system: absorption of sodium from the intestinal lumen; assay: Inhibition of intestinal sodium absorption: urinary sodium (uNa) 16 h after single oral dose in rats; assay type: in vivo, rat; details: oral gavage, 16 h post-dose
How it was run: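 Urinary sodium mass over the 16 h after one oral gavage dose, measured by cation-exchange ion chromatography, reported as percent of water-vehicle group; ANOVA plus Dunnett's post hoc test. Groups of six 8-week-old Sprague-Dawley rats, housed individually in metabolic cages post-dose, fed and watered freely.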

[3] = system: absorption of sodium from the intestinal lumen; assay: Fecal form score (FFS) 16 h after oral dose in rats; assay type: in vivo, rat; details: oral gavage, 16 h post-dose, scale 1-5
How it was run: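 Fecal form was scored at 16 h post-dose on a 1–5 wetness scale (normal pellet to liquid stream), with two independent observations averaged across six rats per group. Animals were 8-week-old Sprague-Dawley rats given test compound or water orally in the late afternoon and kept in metabolic cages.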

SMILES	Prompt Human NHE3 pIC50 (Human NHE3)	Prompt Rat NHE3 pIC50 (Rat NHE3)	Urine P % of control ([1]; dose 3 mg/kg)	Urine Na % of control ([2]; dose 3 mg/kg)	Fecal Form Score average ([3]; dose 3 mg/kg)	Urine P % of control ([1]; dose 2 mg/kg)	Urine Na % of control ([2]; dose 2 mg/kg)	Fecal Form Score average ([3]; dose 2 mg/kg)	Urine P % of control ([1]; dose 10 mg/kg)	Urine Na % of control ([2]; dose 10 mg/kg)	Fecal Form Score average ([3]; dose 10 mg/kg)	IC50 (Rat NHE3; read-out: Prompt Rat NHE3 pIC50 (converted))
CN1Cc2c(Cl)cc(Cl)cc2[C@H](c2cccc(S(=O)(=O)NCCOCCOCCNC(=O)CCC(CCC(=O)NCCOCCOCCNS(=O)(=O)c3cccc([C@@H]4CN(C)Cc5c(Cl)cc(Cl)cc54)c3)(CCC(=O)NCCOCCOCCNS(=O)(=O)c3cccc([C@@H]4CN(C)Cc5c(Cl)cc(Cl)cc54)c3)NC(=O)NC(CO)(CO)CO)c2)C1 [compound 158]	6.90	<5.00	64%	32%	2							
C[C@@H](O)[C@H](NC(=O)NC(CCC(=O)NCCOCCOCCNS(=O)(=O)c1cccc([C@@H]2CN(C)Cc3c(Cl)cc(Cl)cc32)c1)(CCC(=O)NCCOCCOCCNS(=O)(=O)c1cccc([C@@H]2CN(C)Cc3c(Cl)cc(Cl)cc32)c1)CCC(=O)NCCOCCOCCNS(=O)(=O)c1cccc([C@@H]2CN(C)Cc3c(Cl)cc(Cl)cc32)c1)C(N)=O [compound 159]	7.30	7.20	55%	27%	2							
CN1Cc2c(Cl)cc(Cl)cc2[C@H](c2cccc(S(=O)(=O)NCCOCCOCCNC(=O)NCCCC(CCCNC(=O)NCCOCCOCCNS(=O)(=O)c3cccc([C@@H]4CN(C)Cc5c(Cl)cc(Cl)cc54)c3)(CCCNC(=O)NCCOCCOCCNS(=O)(=O)c3cccc([C@@H]4CN(C)Cc5c(Cl)cc(Cl)cc54)c3)NC(=O)COCC(=O)O)c2)C1 [compound 161]	7.60	9.20	60%	82%	2							
CN1Cc2c(Cl)cc(Cl)cc2[C@H](c2cccc(S(=O)(=O)NCCOCCOCCNC(=O)CCC(CCCNC(=O)NCCOCCOCCNS(=O)(=O)c3cccc([C@@H]4CN(C)Cc5c(Cl)cc(Cl)cc54)c3)(CCC(=O)NCCOCCOCCNS(=O)(=O)c3cccc([C@@H]4CN(C)Cc5c(Cl)cc(Cl)cc54)c3)NC(=O)NCP(=O)(O)O)c2)C1 [compound 162]	6.60	7.30				50%	130%	2				
CN1Cc2c(Cl)cc(Cl)cc2[C@H](c2cccc(S(=O)(=O)NCCOCCOCCNC(=O)CCC(CCC(=O)NCCOCCOCCNS(=O)(=O)c3cccc([C@@H]4CN(C)Cc5c(Cl)cc(Cl)cc54)c3)(CCC(=O)NCCOCCOCCNS(=O)(=O)c3cccc([C@@H]4CN(C)Cc5c(Cl)cc(Cl)cc54)c3)NC(=O)N[C@@H](CO)C(=O)O)c2)C1 [compound 163]	7.60	7.90	48%	27%	2							
CN1Cc2c(Cl)cc(Cl)cc2[C@H](c2cccc(S(=O)(=O)NCCOCCOCCNC(=O)CCC(CCC(=O)NCCOCCOCCNS(=O)(=O)c3cccc([C@@H]4CN(C)Cc5c(Cl)cc(Cl)cc54)c3)(CCC(=O)NCCOCCOCCNS(=O)(=O)c3cccc([C@@H]4CN(C)Cc5c(Cl)cc(Cl)cc54)c3)NC(=O)NCC(=O)O)c2)C1 [compound 164]	8.13	7.53	63%	18%	3							
O=C(NCCCCNC(=O)NCCOCCOCCNS(=O)(=O)c1ccc(O[C@H]2c3cc(Cl)cc(F)c3C[C@@H]2N2CC[C@@H](O)C2)cc1)NCCOCCOCCNS(=O)(=O)c1ccc(O[C@H]2c3cc(Cl)cc(F)c3C[C@@H]2N2CC[C@@H](O)C2)cc1 [compound 165]	8.20	<5.00							68%	104%	1	
CN(C)[C@H]1Cc2c(F)cc(Cl)cc2[C@@H]1Oc1ccc(S(=O)(=O)NCCOCCOCCNC(=O)NCCCCNC(=O)NCCOCCOCCNS(=O)(=O)c2ccc(O[C@H]3c4cc(Cl)cc(F)c4C[C@@H]3N(C)C)cc2)cc1 [compound 166]	8.40	<5.00							43%	111%	1	
CN1Cc2c(Cl)cc(Cl)cc2[C@H](c2cccc(S(=O)(=O)NCCOCCOCCNC(=O)NCCCC(CCCNC(=O)NCCOCCOCCNS(=O)(=O)c3cccc([C@@H]4CN(C)Cc5c(Cl)cc(Cl)cc54)c3)(CCCNC(=O)NCCOCCOCCNS(=O)(=O)c3cccc([C@@H]4CN(C)Cc5c(Cl)cc(Cl)cc54)c3)NC(=O)NC[C@H](O)[C@@H](O)[C@H](O)[C@H](O)CO)c2)C1 [compound 167]	8.37	5.80	99%	36%	2							
CN1Cc2c(Cl)cc(Cl)cc2[C@H](c2cccc(S(=O)(=O)NCCOCCOCCNC(=O)NCCC(N)(CCNC(=O)NCCOCCOCCNS(=O)(=O)c3cccc([C@@H]4CN(C)Cc5c(Cl)cc(Cl)cc54)c3)CCNC(=O)NCCOCCOCCNS(=O)(=O)c3cccc([C@@H]4CN(C)Cc5c(Cl)cc(Cl)cc54)c3)c2)C1 [compound 168]	8.13	7.35	50%	56%	1							
CC(=O)C(CCC(=O)NCCOCCOCCNS(=O)(=O)c1cccc([C@@H]2CN(C)Cc3c(Cl)cc(Cl)cc32)c1)(CCC(=O)NCCOCCOCCNS(=O)(=O)c1cccc([C@@H]2CN(C)Cc3c(Cl)cc(Cl)cc32)c1)CCC(=O)NCCOCCOCCNS(=O)(=O)c1cccc([C@@H]2CN(C)Cc3c(Cl)cc(Cl)cc32)c1 [compound 169]	6.20	6.50	64%	42%	2							
CN1Cc2c(Cl)cc(Cl)cc2[C@H](c2cccc(S(=O)(=O)NCCOCCOCCNCCCC(CCC(=O)NCCOCCOCCNS(=O)(=O)c3cccc([C@@H]4CN(C)Cc5c(Cl)cc(Cl)cc54)c3)(CCC(=O)NCCOCCOCCNS(=O)(=O)c3cccc([C@@H]4CN(C)Cc5c(Cl)cc(Cl)cc54)c3)NC(=O)N3CCN(CCOCCO)CC3)c2)C1 [compound 170]	7.20		34%	31%	2							79.4 nM
CN1Cc2c(Cl)cc(Cl)cc2[C@H](c2cccc(S(=O)(=O)NCCOCCOCCNC(=O)NCCC(CCNC(=O)NCCOCCOCCNS(=O)(=O)c3cccc([C@@H]4CN(C)Cc5c(Cl)cc(Cl)cc54)c3)(CCNC(=O)NCCOCCOCCNS(=O)(=O)c3cccc([C@@H]4CN(C)Cc5c(Cl)cc(Cl)cc54)c3)NC(=O)COCC(=O)O)c2)C1 [compound 172]	7.10	8.20	42%	26%	2							

Reference: patent publication US20240366589A1, “NHE3-BINDING COMPOUNDS AND METHODS FOR INHIBITING PHOSPHATE TRANSPORT” (Ardelyx, Inc., priority 2013, published 2024)
